Assay [1] concerns Puccinia triticina. Nature of the assay: Wheat Brown Rust fungicidal activity (PUCCRT). Type of assay: in vivo. Conditions: for pest or weed control at 100 ppm: wheat, high volume; for pest or weed control at 121.5 g/ha: Low Volume Cereal Activity at 121.5 g/Ha.
For assay [2], the system named is Zymoseptoria tritici. Nature of the assay: Leaf Blotch of Wheat fungicidal activity (SEPTTR). Conditions: for pest or weed control at 100 ppm: wheat, high volume; for pest or weed control at 121.5 g/ha: Low Volume Cereal Activity at 121.5 g/Ha. The class given is in vivo.
Setting [3] is: 24 h, 1 Day Protectant, read-out: PUCCRT 1DP % Control rating.
Where [4] appears, read: 72 h, 3 Day Curative, read-out: PUCCRT 3DC % Control rating.
[5] abbreviates: 24 h, 1 Day Protectant, read-out: SEPTTR 1DP % Control rating.
Setting [6] is: 72 h, 3 Day Curative, read-out: SEPTTR 3DC % Control rating.
Setting [7] is: 24 h, 1 Day Protectant, read-out: PUCCRT 1DP (Wheat Brown Rust, 1 Day Protectant).
Where [8] appears, read: 72 h, 3 Day Curative, read-out: PUCCRT 3DC (Wheat Brown Rust, 3 Day Curative).
Where [9] appears, read: 24 h, 1 Day Protectant, read-out: SEPTTR 1DP (Wheat Leaf Blotch, 1 Day Protectant).
[10] abbreviates: 72 h, 3 Day Curative, read-out: SEPTTR 3DC (Wheat Leaf Blotch, 3 Day Curative).

Read-outs that look alike come from different tables or passages of the source. A value given as a limit tells only on which side of the number the result lay.

`COc1ccnc(C(=O)N[C@@H](C)C(=O)O[C@H](C)[C@@H](Oc2ccccc2)c2ccccc2)c1O` [Example 115]: the pest or weed control at 100 ppm in assay [1] (setting [3]) was less than 0%; in assay [1] (setting [4]), more than 80%; in assay [2] (setting [5]), less than 0%; in assay [2] (setting [6]) it was less than 80%.

Regarding `COc1ccnc(C(=O)N[C@@H](C)C(=O)O[C@@H](C)[C@H](Oc2ccccc2)c2ccc(F)cc2Oc2ccccc2)c1O` [Example 178], the pest or weed control at 100 ppm in assay [1] (setting [3]) was more than 80%; in assay [1] (setting [4]), less than 80%; in assay [2] (setting [5]), more than 80%; in assay [2] (setting [6]), more than 80%.

Turning to `COc1ccnc(C(=O)N[C@@H](Cc2ccccc2)C(=O)O[C@@H](C)[C@H](Oc2cccc(F)c2)c2ccccc2)c1O` [Example 128], the pest or weed control at 100 ppm in assay [1] (setting [3]) was more than 80%; in assay [1] (setting [4]), less than 80%; in assay [2] (setting [5]), less than 0%; in assay [2] (setting [6]), less than 80%.

Take `COc1cc(C)ccc1[C@@H](Oc1ccc(C)cc1)[C@H](C)OC(=O)[C@H](C)NC(=O)c1nccc(OC)c1O` [Example 177]: the pest or weed control at 100 ppm in assay [1] (setting [3]) is less than 80%; in assay [1] (setting [4]), less than 0%; in assay [2] (setting [5]) it was more than 80%; in assay [2] (setting [6]) it was more than 80%.

In the case of `COc1ccnc(C(=O)N[C@@H](C)C(=O)O[C@@H](C)[C@@H](OC)c2ccccc2)c1O` [Example 140], the pest or weed control at 100 ppm is less than 80% in assay [1] (setting [3]), more than 80% in assay [1] (setting [4]), less than 0% in assay [2] (setting [5]) and less than 80% in assay [2] (setting [6]).

Take `COc1ccnc(C(=O)N[C@@H](C)C(=O)O[C@@H](C)[C@H](OCC2CC2)c2cccc(-c3ccccc3)c2)c1O` [Example 131]: the pest or weed control at 100 ppm in assay [1] (setting [3]) is less than 80%; in assay [1] (setting [4]), less than 80%; in assay [2] (setting [5]), less than 0%; in assay [2] (setting [6]), less than 80%.

On to `COc1ccnc(C(=O)N[C@@H](C)C(=O)O[C@@H](C)[C@@H](Oc2ccc(Cl)cc2Cl)c2ccccc2)c1OC(=O)C(C)C` [Example 215], for which the pest or weed control at 121.5 g/ha in assay [1] (setting [7]), in assay [1] (setting [8]), in assay [2] (setting [9]) and in assay [2] (setting [10]) was less than 80% throughout.

On to `COc1ccnc(C(=O)N[C@@H](C)C(=O)O[C@@H](C)[C@H](Oc2cccc(Cl)c2)c2ccccc2)c1OC(C)=O` [Example 203], for which the pest or weed control at 121.5 g/ha is more than 80% in assay [1] (setting [7]), less than 80% in assay [1] (setting [8]), more than 80% in assay [2] (setting [9]) and more than 80% in assay [2] (setting [10]).

For `COc1ccnc(C(=O)N[C@H](C(=O)O[C@@H](C)[C@H](Oc2ccc(C(F)(F)F)cc2)c2ccccc2)C(C)C)c1O` [Example 126], the pest or weed control at 100 ppm in assay [1] (setting [3]) was less than 80%; in assay [1] (setting [4]) it was less than 0%; in assay [2] (setting [5]) it was less than 0%; in assay [2] (setting [6]), less than 80%.

As for `COc1ccnc(C(=O)N[C@@H](C)C(=O)O[C@@H](C)C(Oc2ccc(F)cc2)c2ccc(F)cc2)c1O` (stereo partly shown) [Example 147], the pest or weed control at 100 ppm in assay [1] (setting [3]) is more than 80%; in assay [1] (setting [4]), less than 80%; in assay [2] (setting [5]), more than 80%; in assay [2] (setting [6]), more than 80%.

Turning to `COc1ccnc(C(=O)N[C@@H](C)C(=O)O[C@@H](C)[C@H](Oc2ccccc2)c2ccc(F)cc2OCC2CC2)c1O` [Example 175], the pest or weed control at 100 ppm in assay [1] (setting [3]) was more than 80%; in assay [1] (setting [4]), more than 80%; in assay [2] (setting [5]), more than 80%; in assay [2] (setting [6]), less than 80%.

`COc1ccnc(C(=O)N[C@@H](C)C(=O)O[C@@H](C)[C@@H](Oc2ccccc2)c2cccs2)c1O` [Example 129]: the pest or weed control at 100 ppm is less than 80% in assay [1] (setting [3]), less than 80% in assay [1] (setting [4]), more than 80% in assay [2] (setting [5]) and less than 80% in assay [2] (setting [6]).

As for `COc1ccnc(C(=O)N[C@@H](C)C(=O)O[C@@H](C)[C@H](Oc2ccccc2)c2cccc(-c3ccccc3)c2)c1O` [Example 145], the pest or weed control at 100 ppm in assay [1] (setting [3]) was more than 80%; in assay [1] (setting [4]), less than 80%; in assay [2] (setting [5]), more than 80%; in assay [2] (setting [6]), more than 80%.

As to `COc1ccnc(C(=O)N[C@@H](C)C(=O)O[C@@H](C)[C@@H](OCC2CC2)c2ccccc2)c1O` [Example 142], the pest or weed control at 100 ppm in assay [1] (setting [3]) was more than 80%; in assay [1] (setting [4]), more than 80%; in assay [2] (setting [5]) it was less than 80%; in assay [2] (setting [6]) it was less than 80%.

For `CC[C@H](NC(=O)c1nccc(OC)c1OCOC(C)=O)C(=O)O[C@@H](C)[C@H](Oc1cc(F)ccc1F)c1ccccc1` [Example 193], the pest or weed control at 121.5 g/ha in assay [1] (setting [7]) was more than 80%; in assay [1] (setting [8]) it was more than 80%; in assay [2] (setting [9]), less than 80%; in assay [2] (setting [10]) it was less than 0%.

With `COc1ccnc(C(=O)N[C@@H](C)C(=O)O[C@@H](C)[C@@H](Oc2ccccc2)c2ccccc2)c1OCOC(C)=O` [Example 219], the pest or weed control at 121.5 g/ha in assay [1] (setting [7]), in assay [1] (setting [8]), in assay [2] (setting [9]) and in assay [2] (setting [10]) was more than 80% in each case.

`COc1cc(F)ccc1[C@@H](Oc1ccc(C)cc1)[C@H](C)OC(=O)[C@H](C)NC(=O)c1nccc(OC)c1O` [Example 173]: the pest or weed control at 100 ppm in assay [1] (setting [3]), in assay [1] (setting [4]), in assay [2] (setting [5]) and in assay [2] (setting [6]) was more than 80% each time.

As to `COc1ccnc(C(=O)N[C@@H](C)C(=O)O[C@@H](C)[C@H](Oc2ccc(F)cc2)c2ccccc2)c1O` [Example 146], the pest or weed control at 100 ppm in assay [1] (setting [3]), in assay [1] (setting [4]), in assay [2] (setting [5]) and in assay [2] (setting [6]) was more than 80% in each case.

As to `COc1ccnc(C(=O)N[C@@H](C)C(=O)O[C@@H](C)[C@H](Oc2ccc(C)cc2Cl)c2ccc(F)cc2)c1O` [Example 150], the pest or weed control at 100 ppm is more than 80% in assay [1] (setting [3]), more than 80% in assay [1] (setting [4]), more than 80% in assay [2] (setting [5]) and less than 80% in assay [2] (setting [6]).

As to `COc1cccc([C@@H](Oc2ccccc2)[C@H](C)OC(=O)[C@H](C)NC(=O)c2nccc(OC)c2OCOC(C)=O)c1` [Example 258], the pest or weed control at 121.5 g/ha in assay [1] (setting [7]), in assay [1] (setting [8]), in assay [2] (setting [9]) and in assay [2] (setting [10]) was more than 80% each time.

Take `COc1ccnc(C(=O)N[C@@H](C)C(=O)O[C@@H](C)[C@H](Oc2cc(F)ccc2F)c2ccccc2)c1OC(C)=O` [Example 192]: the pest or weed control at 121.5 g/ha in assay [1] (setting [7]) was more than 80%; in assay [1] (setting [8]) it was more than 80%; in assay [2] (setting [9]), more than 80%; in assay [2] (setting [10]) it was less than 80%.

As for `COc1ccnc(C(=O)N[C@@H](C)C(=O)O[C@@H](C)[C@H](Oc2ccc(C)cc2Cl)c2ccccc2)c1OCOC(C)=O` [Example 244], the pest or weed control at 121.5 g/ha was more than 80% in assay [1] (setting [7]), less than 80% in assay [1] (setting [8]), more than 80% in assay [2] (setting [9]) and more than 80% in assay [2] (setting [10]).

Turning to `COc1ccnc(C(=O)N[C@@H](C)C(=O)O[C@@H](C)[C@H](OC)c2ccccc2)c1OC(C)=O` [Example 231], the pest or weed control at 121.5 g/ha is less than 0% in assay [1] (setting [7]), more than 80% in assay [1] (setting [8]), less than 0% in assay [2] (setting [9]) and more than 80% in assay [2] (setting [10]).

For `COc1ccnc(C(=O)N[C@@H](C)C(=O)O[C@@H](C)[C@H](Oc2ccccc2)c2ccc(-c3ccccc3)cc2)c1OCOC(C)=O` [Example 239], the pest or weed control at 121.5 g/ha in assay [1] (setting [7]) was more than 80%; in assay [1] (setting [8]), less than 80%; in assay [2] (setting [9]), more than 80%; in assay [2] (setting [10]), more than 80%.

In the case of `COc1ccnc(C(=O)N[C@@H](C)C(=O)O[C@@H](C)[C@H](Oc2ccc(C)cc2)c2ccccc2)c1O` [Example 151], the pest or weed control at 100 ppm in assay [1] (setting [3]) is more than 80%; in assay [1] (setting [4]), more than 80%; in assay [2] (setting [5]), more than 80%; in assay [2] (setting [6]), less than 80%.

For the compound `COc1ccnc(C(=O)N[C@@H](C)C(=O)O[C@@H](C)[C@H](Oc2ccccc2)c2nccs2)c1O` [Example 132], the pest or weed control at 100 ppm in assay [1] (setting [3]) is more than 80%; in assay [1] (setting [4]), less than 80%; in assay [2] (setting [5]) it was less than 80%; in assay [2] (setting [6]) it was less than 0%.

With `COc1ccnc(C(=O)N[C@@H](C)C(=O)O[C@@H](C)[C@@H](OCC2CC2)c2ccccc2)c1OC(C)=O` [Example 232], the pest or weed control at 121.5 g/ha is more than 80% in assay [1] (setting [7]), more than 80% in assay [1] (setting [8]), less than 0% in assay [2] (setting [9]) and more than 80% in assay [2] (setting [10]).

For the compound `COc1ccnc(C(=O)N[C@@H](C)C(=O)O[C@@H](C)[C@H](Oc2ccc(C)cc2Cl)c2ccccc2)c1OC(C)=O` [Example 243], the pest or weed control at 121.5 g/ha in assay [1] (setting [7]) is more than 80%; in assay [1] (setting [8]) it was less than 80%; in assay [2] (setting [9]), more than 80%; in assay [2] (setting [10]), more than 80%.

The values above are taken from patent US20180002288A1, “USE OF PICOLINAMIDES AS FUNGICIDES” (DOW AGROSCIENCES LLC, priority 2014, published 2018).
